From patent US10961279B2 (priority 2011, dated 2021)

Tested on: CTLL-2 cells
Assay type: cell-based

| Sequence | effect of the dimeric peptides on proliferation of CTLL-2 cells (synthesis of new DNA) |
| --- | --- |
| GLFAGFIENGWEGCGGEKEKEK [non-IS #2] | no significant effect |
| GLFGAAGFIENGWEGCGGEKEKEK [non-IS #1] | much less |
